Results published in patent US9301989B2, “hTRPA1-activating composition and use thereof” (KOREA FOOD RESEARCH INSTITUTE, priority 2011, dated 2016).
Entries after “also recorded” stand apart in the source; their conditions may differ.

How the values were obtained:
hTRPA1 [1] = molecular target: T1, hTRPA1 (Homo sapiens, UniProt O75762); assay: Evaluation of hTRPA1 action using Ca2+ imaging (Fura-2/AM) in cell lines stably expressing hTRPA1; assay type: cell-based; conditions: for calcium release in hTRPA1 stably expressing cell line: 50 μM, FIG. 2; for activity inhibition by ruthenium red (RR): treatment with cationic channel blocker RR
T1 construct: The hTRPA1-expressing gene (coding region) was cloned; expressed in transfected cells
T1 sequence (O75762 whole entry): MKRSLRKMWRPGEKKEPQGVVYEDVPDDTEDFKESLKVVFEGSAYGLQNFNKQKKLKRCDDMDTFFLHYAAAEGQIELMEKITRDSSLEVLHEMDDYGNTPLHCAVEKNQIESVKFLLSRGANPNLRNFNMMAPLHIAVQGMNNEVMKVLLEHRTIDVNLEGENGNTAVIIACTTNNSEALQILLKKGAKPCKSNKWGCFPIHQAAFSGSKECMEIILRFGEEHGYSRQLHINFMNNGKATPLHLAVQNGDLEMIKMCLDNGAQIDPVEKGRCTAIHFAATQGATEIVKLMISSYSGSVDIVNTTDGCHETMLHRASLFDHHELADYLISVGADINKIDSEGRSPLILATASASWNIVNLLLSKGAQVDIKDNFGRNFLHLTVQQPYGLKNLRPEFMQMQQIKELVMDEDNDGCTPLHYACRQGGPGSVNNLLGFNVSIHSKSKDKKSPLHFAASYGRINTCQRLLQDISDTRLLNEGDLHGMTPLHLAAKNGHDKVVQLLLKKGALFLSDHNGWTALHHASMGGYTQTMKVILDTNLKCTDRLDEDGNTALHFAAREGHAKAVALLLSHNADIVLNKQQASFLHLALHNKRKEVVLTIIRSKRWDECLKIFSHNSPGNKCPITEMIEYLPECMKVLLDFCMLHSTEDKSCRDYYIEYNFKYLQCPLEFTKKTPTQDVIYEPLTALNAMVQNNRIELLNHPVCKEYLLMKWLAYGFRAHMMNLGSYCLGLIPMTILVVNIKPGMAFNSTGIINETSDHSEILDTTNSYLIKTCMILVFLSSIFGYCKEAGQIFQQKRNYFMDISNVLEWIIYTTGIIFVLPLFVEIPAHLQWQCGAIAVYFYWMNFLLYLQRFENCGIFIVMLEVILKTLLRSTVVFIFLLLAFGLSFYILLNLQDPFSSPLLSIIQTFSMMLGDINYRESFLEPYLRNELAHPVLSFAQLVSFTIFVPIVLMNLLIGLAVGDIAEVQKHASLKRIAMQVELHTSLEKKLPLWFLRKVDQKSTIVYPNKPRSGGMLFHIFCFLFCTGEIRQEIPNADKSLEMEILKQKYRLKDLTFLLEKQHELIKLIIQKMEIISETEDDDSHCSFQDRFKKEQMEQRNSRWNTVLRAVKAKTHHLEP
Method: (§1) The hTRPA1-expressing gene (coding region) was cloned according to the manufacturer's protocol for the pcDNA5/FRT Complete System (Invitrogen). In order to verify whether the hTRPA1 gene was accurately inserted into the vector, sequencing was carried out using the ABI 130 or 310 DNA generatic analyzer (Applied Biosystems), and the constructed vector and Pog44 were transduced into Flin-in 293 cells using Lipofectamine 2000 (Invitrogen). After 24 hours, the cells were optionally treated with 100 μg/ml of hygromycin-B (Invitrogen), following by further culturing for 2-3 weeks. Then, only antibiotic-resistant cells were collected, and used for measuring cellular responses of hTRPA1, followed by repeated culturing. The cells were cultured in Dulbecco's modified Eagle's medium (DMEM) supplemented with 10% fetal bovine serum.
The Ca^2+ imaging was conducted to measure hTRPA1 activation. Fura-2/AM (Molecular Probes, USA) was used as a marker for measuring the change in the intracellular calcium concentration. At 20-26 hours before the analysis, cell lines stably expressing hTRPA1 were dispensed in a 96-well plate. The cells were cultured in a solution added with Fura-2/AM (5 μM) at 27° C. for 30 minutes. The cells were washed with an assay buffer (140 mM NaCl, 10 mM HEPES, 2 mM CaCl2.2H2O, 2 mM EGTA, 1 mM MgCl2.6H2O, 10 mM glucose, and 5 mM KCl), added with 100 μL of the assay buffer, and left at room temperature for 15 minutes. The Fura-2/AM-loaded cells were placed on a microscope, and the fluorescence absorbance was measured between 340 nm and 380 nm. The images were recorded at 3-sec intervals, and the change in the intracellular calcium concentration was analyzed using MetalFluor software (Molecular Devices, Sunnyvale, Calif., USA).

NCI-H716 cells = assay: GLP-1 secretion effect in NCI-H716 cells (GLP-1 active ELISA); assay type: cell-based, human; conditions: 1 hour
Source text: Glucagon-like peptide-1 (GLP-1), which is the hormone secreted from the gut, is involved in an anti-diabetic action by amplifying glucose-stimulated insulin secretion and suppressing the beta-cell death. GLP-1 is also involved in an anti-obesity action by decreasing the rate of gastric emptying and suppressing the appetite. Therefore, a GLP-1 secreting material can be expected to have anti-diabetic and anti-obesity effects.
The human-derived cell line NCI-H716 cells were purchased from the American Type Culture Collection (ATCC, Manassas, Va.). This cell line corresponds to suspension cells isolated from the large-intestinal Adenocarcinoma of an adult, and has been known as a cell line that mainly secrets GLP-1. For the maintenance of proliferation and culture of the cell line, the cells were cultured in RPMI 1640 medium supplemented with 10% fetal bovine serum (FBS), 2 mM L-glutamine, 100 IU/ml penicillin, and 100 μg/ml streptomycin, and for the adherence and differentiation of cells, the Matrigel matrix (Becton Dickinson and Co., Bedford, Mass.) was coated on plates and the cells were cultured in high-glucose DMEM supplemented with 10% FBS, 2 mm L-glutamine, 100 IU/ml penicillin, and 100 μg/ml streptomycin.
The NCI-H716 cell line was cultured at 2×10^5 cells/mL in a 96-well culture plate coated with Matrigel for 3 days. On the day of the experiment, the cells were washed with 1× phosphated buffered saline (PBS). For the control group, Krebs-Ringer bicarbonate buffer (KRB, 128.8 mmol/l NaCl, 4.8 mmol/l KCl, 1.2 mmol/l KH2PO4, 1.2 mmol/l MgSO4, 2.5 mmol/l CaCl2, 5 mmol/l NaHCO3, and 10 mmol/l HEPES, 0.2% BSA, pH 7.4) was used. For the analysis, the samples of different concentrations were added thereto, followed by incubation at 37° C. for 1 hour. After the incubation, the supernatant was taken (100 μL) for GLP-1 analysis, and analyzed by using the GLP-1 active ELISA kit (EGLP-35K, Millipore) according to the manufacturer's manual. The concentration of GLP-1 was calculated based on the supplied GLP-1 standard material (pmol).

hTRPA1 [2] = molecular target: T1, hTRPA1; assay: Measurement of intracellular Ca2+ concentration using cell-based analysis (FlexStation, Fluo-4-AM)
Method: as §1
The intercellular Ca^2+ concentration was measured by using FlexStation™ (Molecular Devices, Sunnyvale, Calif., USA). Cells were dispensed at 24 hours before the analysis, and treated with 5 μM Fluo-4-AM (Molecular Probes, Eugene, Oreg., USA) as a marker for measuring the change in the intracellular calcium concentration, followed by reaction at 27° C. for 30 minutes. After that, the cells were washed with an assay buffer (140 mM NaCl, 10 mM HEPES, 2 mM CaCl22H2O, 2 mM EGTA, 1 mM MgCl26H2o, 10 mM glucose, and 5 mM KCl), added with 100 μL of the assay buffer, and left at room temperature for 15 minutes. Then, each of extracts and compositions was treated and used to measure fluorescence absorbance at 486 nm (F486) and 516 nm (F516). The change in intercellular calcium concentration was represented as A relative fluorescent unit (RFU), and was analyzed by using the Softmax software (Molecular devices, USA).

[3] = Sensory test for pungent flavor; assay type: in vivo; conditions: 1 μM solution
Method: The sensory test was conducted for the pungent flavor due to coniferyl alcohol. A solution of 1 μM coniferyl alcohol was used, and the sensitivity of the pungent taste was marked in a 15-point scale (n=6).

[4] = Lacrimation test (solution sprayed onto eyes of participants); assay type: in vivo; conditions: 1 μM solution sprayed onto eyes
Method: The lacrimation test was conducted on the coniferyl alcohol. A solution of 1 μM coniferyl alcohol was used, and experiment participants were asked to write down their feeling when the solution was sprayed onto their eyes.

C=CCN=C=S [AITC, allyl isothiocyanate]
calcium response / hTRPA1 action in hTRPA1-expressed cells (Ca2+ imaging) (hTRPA1 [1]): all cells were activated | calcium release in hTRPA1 stably expressing cell line (hTRPA1 [1]): calcium was released | activity inhibition by HC-030031 (hTRPA1 [1]; treatment with TRPA1 antagonist HC-030031): not inhibited | activity inhibition by ruthenium red (RR) (hTRPA1 [1]): most activities were inhibited | GLP-1 secretion as compared with the untreated control group (NCI-H716 cells; 500 μM): 3.9 times

O=CC=Cc1ccccc1 [CALD, cinnamaldehyde]
calcium response / hTRPA1 action in hTRPA1-expressed cells (Ca2+ imaging) (hTRPA1 [1]): all cells were activated | calcium release in hTRPA1 stably expressing cell line (hTRPA1 [1]): calcium was released | activity inhibition by ruthenium red (RR) (hTRPA1 [1]): most activities were inhibited

O=C(/C=C/c1ccc(O)c(O)c1)O[C@@H]1C[C@](O)(C(=O)O)C[C@@H](O)[C@H]1O [chlorogenic acid]
calcium response / hTRPA1 action in hTRPA1-expressed cells (Ca2+ imaging) (hTRPA1 [1]): no effects

COc1cc(/C=C/CO)ccc1O [coniferyl alcohol, Coniferyl alcohol]
calcium response / hTRPA1 action in hTRPA1-expressed cells (Ca2+ imaging) (hTRPA1 [1]): specifically acted on hTRPA1; also recorded: increased the intercellular Ca^2+ influx in a time-dependent manner | activity inhibition by ruthenium red (RR) (hTRPA1 [1]): completely blocked | EC50 (hTRPA1 [2]; FIG. 29): 654 µM | Ca2+ response inhibited by TRPA1 antagonist HC-030031 (hTRPA1 [2]; HC-030031 100 μM): inhibited; also recorded: significantly reduced | Ca2+ response inhibited by cationic channel blocker RR (hTRPA1 [2]; RR 30 μM): inhibited | taste description in sensory test [3]: the remaining taste was stronger than the first taste and the tongue burns or has a pain | intensity of pungent tastes (spicy, tingle, and tangy tastes) ([3]; 15-point scale, n=6): 11.83±1.6 | ocular tears or irritation due to spray [4]: ocular pain (tingling, stinging, and dizziness) was observed | GLP-1 secretion as compared with the untreated control group (NCI-H716 cells; 3 μM): 3 times | GLP-1 secretion as compared with the untreated control group (NCI-H716 cells; 10 μM or higher): ≥ 4 times
